According to PubChem BioAssay AID330 (DTP/NCI, 2004):
Several values for one entry are separate records, joined by “and”; a condition that tells them apart may be missing. Identical values can stand only once. Toxic doses and inconclusive results are not listed.

Tested on: P388 leukemia ip, CD2F1 mice, survival T/C
Assay: NCI In Vivo Anticancer Drug Screen. Data for tumor model P388 Leukemia (intraperitoneal) in CD2F1 (CDF1) mice
Conditions: endpoint: median survival time, higher = longer survival
In short: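 Mice carrying the transplanted tumor received test compound or vehicle. Survival was recorded in each group, and the value is the treated-group measurement divided by that of the vehicle-treated control group.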

[1] = dose: 50.0 mg/kg/injection, schedule: Q01DX005 (ip), vehicle: Klucel (hydroxypropylcellulose) (HPC)
[2] = dose: 100.0 mg/kg/injection, schedule: Q01DX005 (ip), vehicle: Klucel (hydroxypropylcellulose) (HPC)
[3] = dose: 200.0 mg/kg/injection, schedule: Q01DX005 (ip), vehicle: Klucel (hydroxypropylcellulose) (HPC)
[4] = dose: 12.5 mg/kg/injection, schedule: Q01DX005 (ip), vehicle: saline with Tween-80
[5] = dose: 50.0 mg/kg/injection, schedule: Q01DX005 (ip), vehicle: saline with Tween-80
[6] = dose: 100.0 mg/kg/injection, schedule: Q01DX005 (ip), vehicle: saline with Tween-80
[7] = dose: 200.0 mg/kg/injection, schedule: Q01DX005 (ip), vehicle: saline with Tween-80
[8] = dose: 60.0 mg/kg/injection, schedule: Q01DX005 (ip), vehicle: saline
[9] = dose: 120.0 mg/kg/injection, schedule: Q01DX005 (ip), vehicle: saline
[10] = dose: 240.0 mg/kg/injection, schedule: Q01DX005 (ip), vehicle: saline
[11] = dose: 50.0 mg/kg/injection, schedule: Q01DX009 (ip), vehicle: saline
[12] = dose: 100.0 mg/kg/injection, schedule: Q01DX009 (ip), vehicle: saline
[13] = dose: 50.0 mg/kg/injection, schedule: Q01DX009 (ip), vehicle: other
[14] = dose: 100.0 mg/kg/injection, schedule: Q01DX009 (ip), vehicle: other
[15] = dose: 200.0 mg/kg/injection, schedule: Q01DX009 (ip), vehicle: other
[16] = dose: 50.0 mg/kg/injection, schedule: Q01DX009 (ip), vehicle: Klucel (hydroxypropylcellulose) (HPC)
[17] = dose: 100.0 mg/kg/injection, schedule: Q01DX009 (ip), vehicle: Klucel (hydroxypropylcellulose) (HPC)
[18] = dose: 200.0 mg/kg/injection, schedule: Q01DX009 (ip), vehicle: Klucel (hydroxypropylcellulose) (HPC)
[19] = dose: 25.0 mg/kg/injection, schedule: Q01DX009 (ip), vehicle: saline with Tween-80
[20] = dose: 50.0 mg/kg/injection, schedule: Q01DX009 (ip), vehicle: saline with Tween-80
[21] = dose: 100.0 mg/kg/injection, schedule: Q01DX009 (ip), vehicle: saline with Tween-80
[22] = dose: 12.5 mg/kg/injection, schedule: Q01DX009 (ip), vehicle: saline with Tween-80
[23] = dose: 200.0 mg/kg/injection, schedule: Q01DX009 (ip), vehicle: saline with Tween-80

C=C1C[C@@]23CC[C@@H]4[C@](C)(CC[C@H](O)[C@]4(C)COC(=O)CCC(=O)O)[C@H]2CC[C@@H]1C3
T/C [1]: 101 % of control | T/C [2]: 100 % of control | T/C [3]: 99 % of control

CC(=O)OC(CC=C(C)C)C1=CC(=O)c2c(O)ccc(O)c2C1=O (stereo not given)
T/C (dose: 6.25 mg/kg/injection, schedule: Q01DX005 (ip), vehicle: saline with Tween-80): 109 % of control | T/C [4]: 109 % of control

O=C(O)Cc1csc(=S)n1-c1ccccc1
T/C [5]: 97 % of control | T/C [6]: 102 % of control | T/C [7]: 90 % of control

Cc1cc2nnn(C3OC(CO)C(O)C3O)c2cc1C (stereo not given)
T/C [1]: 105 % of control | T/C [2]: 107 % of control | T/C [3]: 104 % of control

CC1CC2=C(C(=O)c3ccccc3C2=O)C(C)O1 (stereo not given)
T/C [8]: 106 % of control | T/C [9]: 92 % of control | T/C [10]: 96 % of control

CC1(C)OP(=O)(O)C=C1Br
T/C [11]: 103 % of control | T/C [12]: 107 % of control | T/C (dose: 200.0 mg/kg/injection, schedule: Q01DX009 (ip), vehicle: saline): 93 % of control

Cc1ncc(N)c2c1OC(C)(C)OC2
T/C [4]: 102 % of control | T/C (dose: 25.0 mg/kg/injection, schedule: Q01DX005 (ip), vehicle: saline with Tween-80): 103 % of control | T/C [5]: 99 % of control and 101 % of control

CC1S(=O)(=O)OCCCOS1(=O)=O
T/C (dose: 12.5 mg/kg/injection, schedule: Q01DX005 (ip), vehicle: Klucel (hydroxypropylcellulose) (HPC)): 119 % of control | T/C (dose: 25.0 mg/kg/injection, schedule: Q01DX005 (ip), vehicle: Klucel (hydroxypropylcellulose) (HPC)): 154 % of control

COc1ccc2c(c1)CSCC2O (stereo not given)
T/C [13]: 95 % of control | T/C [14]: 100 % of control | T/C [15]: 96 % of control

O=C(O)C1CCCCC12OCCO2 (stereo not given)
T/C (dose: 100.0 mg/kg/injection, schedule: Q04DX002 (ip), vehicle: saline): 102 % of control | T/C (dose: 200.0 mg/kg/injection, schedule: Q04DX002 (ip), vehicle: saline): 106 % of control | T/C (dose: 400.0 mg/kg/injection, schedule: Q04DX002 (ip), vehicle: saline): 98 % of control

CN1Cc2c(N)cccc2C(c2ccccc2)C1 (stereo not given)
T/C [16]: 96 % of control | T/C [17]: 105 % of control

COc1cc(-c2nc(SC)n[nH]2)cc(OC)c1OC
T/C [1]: 95 % of control | T/C [2]: 104 % of control | T/C [3]: 88 % of control

CNC(=O)OCCC(OC(=O)NC)C1CCC2C3CC=C4CC(O)CCC4(C)C3CCC12C (stereo not given)
T/C [1]: 100 % of control | T/C [2]: 102 % of control | T/C [3]: 97 % of control

C/C=C1\CN2CCC34c5ccccc5N(C)C35OCC4(C(=O)OC)C1CC25 (stereo not given)
T/C (dose: 5.25 mg/kg/injection, schedule: Q01DX005 (ip), vehicle: saline + Tween-80 + alcohol): 100 % of control | T/C (dose: 10.5 mg/kg/injection, schedule: Q01DX005 (ip), vehicle: saline + Tween-80 + alcohol): 92 % of control | T/C (dose: 21.0 mg/kg/injection, schedule: Q01DX005 (ip), vehicle: saline + Tween-80 + alcohol): 98 % of control | T/C (dose: 42.0 mg/kg/injection, schedule: Q01DX005 (ip), vehicle: saline + Tween-80 + alcohol): 96 % of control

CC(=O)OC1CCC2(C)C(CCC3C2CCC2(C)C3CC(CC(=O)O)C2OC(C)=O)C1 (stereo not given)
T/C (dose: 25.0 mg/kg/injection, schedule: Q01DX009 (ip), vehicle: Klucel (hydroxypropylcellulose) (HPC)): 92 % of control | T/C [16]: 92 % of control | T/C [17]: 93 % of control | T/C [18]: 97 % of control

CN(C)c1ccc(C(c2cc3c(cc2O)OCO3)N2CCN(C(c3ccc(N(C)C)cc3)c3cc4c(cc3O)OCO4)CC2)cc1 (stereo not given)
T/C [8]: 96 % of control | T/C [9]: 100 % of control | T/C [10]: 99 % of control

CSC1C(=O)Nc2ccc([N+](=O)[O-])cc21 (stereo not given)
T/C [19]: 96 % of control | T/C [20]: 105 % of control | T/C [21]: 113 % of control

CC1(c2ccc(Cl)cc2)OC(=O)CC(=O)O1
T/C [1]: 99 % of control | T/C [2]: 100 % of control | T/C [3]: 100 % of control

CCCCCCC(/C=C/c1ccc(Cl)c(Cl)c1)=N\Nc1ccc(Cl)cc1Cl
T/C [22]: 94 % of control | T/C [19]: 94 % of control | T/C [21]: 88 % of control | T/C [23]: 87 % of control

N#CSCc1cc(Cl)c(Cl)cc1Cl
T/C (dose: 25.0 mg/kg/injection, schedule: Q04DX002 (ip), vehicle: saline with Tween-80): 106 % of control | T/C (dose: 50.0 mg/kg/injection, schedule: Q04DX002 (ip), vehicle: saline with Tween-80): 106 % of control | T/C (dose: 100.0 mg/kg/injection, schedule: Q04DX002 (ip), vehicle: Klucel (hydroxypropylcellulose) (HPC)): 107 % of control | T/C (dose: 100.0 mg/kg/injection, schedule: Q04DX002 (ip), vehicle: saline with Tween-80): 100 % of control

CC(C)(C)OC(=O)NC(CCCCNC(=O)OCc1ccccc1)C(=O)O (stereo not given)
T/C (dose: 50.0 mg/kg/injection, schedule: Q01DX005 (ip), vehicle: distilled water + Tween-80 + alcohol): 92 % of control | T/C (dose: 50.0 mg/kg/injection, schedule: Q01DX005 (ip), vehicle: saline): 106 % of control | T/C (dose: 100.0 mg/kg/injection, schedule: Q01DX005 (ip), vehicle: distilled water + Tween-80 + alcohol): 92 % of control | T/C (dose: 100.0 mg/kg/injection, schedule: Q01DX005 (ip), vehicle: saline): 100 % of control | T/C (dose: 200.0 mg/kg/injection, schedule: Q01DX005 (ip), vehicle: saline): 103 % of control

CSC(=S)N/N=C/c1ccccc1O
T/C (dose: 6.25 mg/kg/injection, schedule: Q01DX009 (ip), vehicle: saline with Tween-80): 90 % of control | T/C [22]: 90 % of control | T/C [19]: 95 % of control

c1ccc(CCNc2ncnc3nc[nH]c23)cc1
T/C (dose: 12.5 mg/kg/injection, schedule: Q01DX009 (ip), vehicle: other): 102 % of control | T/C (dose: 25.0 mg/kg/injection, schedule: Q01DX009 (ip), vehicle: other): 101 % of control | T/C [13]: 100 % of control | T/C [14]: 101 % of control | T/C [15]: 102 % of control

O=C(O)CCC(=O)NC1C(NNC(=O)c2cccnc2)OC(CO)C(O)C1O (stereo not given)
T/C [5]: 101 % of control | T/C [6]: 95 % of control | T/C [7]: 101 % of control

O=C(O)CCCc1ccccc1[N+](=O)[O-]
T/C [20]: 105 % of control | T/C [21]: 105 % of control | T/C [23]: 103 % of control | T/C (dose: 400.0 mg/kg/injection, schedule: Q01DX009 (ip), vehicle: saline with Tween-80): 105 % of control

CCSCCCC(=O)O
T/C (dose: 25.0 mg/kg/injection, schedule: Q01DX009 (ip), vehicle: saline): 100 % of control | T/C [11]: 100 % of control | T/C [12]: 100 % of control

CCOC(=O)C(CC1=CS(=O)(=O)c2ccc(Cl)cc21)(NC(C)=O)C(=O)OCC
T/C [16]: 96 % of control | T/C [17]: 91 % of control | T/C [18]: 87 % of control

CC(=O)Nc1c(Br)cc(C)cc1Br
T/C [16]: 94 % of control | T/C [17]: 102 % of control | T/C [18]: 100 % of control

CN1CC(O)C2=CC(=O)C(=O)C(I)=C21 (stereo not given)
T/C (dose: 30.0 mg/kg/injection, schedule: Q01DX005 (ip), vehicle: saline + Tween-80 + alcohol): 108 % of control | T/C [1]: 109 % of control | T/C (dose: 60.0 mg/kg/injection, schedule: Q01DX005 (ip), vehicle: saline + Tween-80 + alcohol): 101 % of control | T/C (dose: 240.0 mg/kg/injection, schedule: Q01DX005 (ip), vehicle: saline + Tween-80 + alcohol): 114 % of control

Oc1ccccc1N=Cc1cccs1
T/C [16]: 109 % of control | T/C [17]: 105 % of control | T/C [18]: 124 % of control

COc1ccc(NC(=O)N(C)C)cc1OC
T/C (dose: 100.0 mg/kg/injection, schedule: Q04DX003 (ip), vehicle: saline): 101 % of control | T/C (dose: 200.0 mg/kg/injection, schedule: Q04DX003 (ip), vehicle: saline): 107 % of control | T/C (dose: 400.0 mg/kg/injection, schedule: Q04DX003 (ip), vehicle: saline): 105 % of control
